Reference: patent publication US20150253330A1, “PRE-SELECTION OF SUBJECTS FOR THERAPEUTIC TREATMENT WITH AN HSP90 INHIBITOR BASED ON HYPOXIC STATUS” (Synta Pharmaceuticals Corp., priority 2012, published 2015)
“Also recorded” adds a separate entry of the source.

How the values were obtained:
advanced GIST = assay: Phase 2 study in gastrointestinal stromal tumors (GIST); type: in vivo, human
Method: Patients with advanced (e.g., metastatic or unresectable) GIST following failure of prior therapy, e.g., imatinib or sunitinib, received ganetespib (200 mg/m^2) as a 1 hour IV infusion once per week for 3 weeks of a 28 day cycle. GIST status was assessed at 8 weeks per RECIST, until progression. […] Hsp90 client protein levels were analyzed in biopsies pre-therapy and 24-48 h post-treatment with ganetespib in a subset of patients.

[1] = Phase 2 study in solid tumors, twice-weekly infusion (safety, PK, response); type: in vivo, human; settings: human, plasma, intravenous; patients, 1 hr infusion; read-out: Mean terminal half-life
Excerpt: (§1) Patients with solid tumors who had exhausted standard treatment options received ganetespib as a 1 hr infusion twice-weekly for 3 weeks (weeks) of a 28 day cycle until disease progression. Serial PK and pharmacodynamic samples were obtained during cycle 1. Safety assessments included frequency and grade of adverse events (AEs), laboratory parameters and ECG changes.

solid tumors = assay: as above; type: in vivo, human
Excerpt: as §1

MDA-MB-231 = assay: 72 hr viability by CTG, breast cancer cell line; type: cell-based
Method: Breast cancer is a heterogeneous disease historically broken down into 4 subtypes. Various compounds were tested for their effects in cell viability assays using various breast cancer cell lines. Cellular viability was assessed using the CellTiter-Glo® Luminescent Cell Viability Assay (Promega, Madison, Wis., USA) according to the manufacturer's protocol. KRAS mutant NSCLC cell lines were seeded into 96-well plates based on optimal growth rates determined empirically for each line. Twenty-four hours after plating, cells were dosed with graded concentrations of ganetespib for 72 h. CellTiter-Glo® was added (50% v/v) to the cells, and the plates incubated for 10 min prior to luminescent detection in a SpectraMax® Plus 384 microplate reader (Molecular Devices, Sunnyvale, Calif., USA). Data were normalized to percent of control and IC50 values used to determine the sensitivity of each line. For the comparative analysis study with MEK and PI3K/mTOR inhibitors, A549, H2009, Calu-1, and H358 cells were treated with graded concentrations of ganetespib, AZD6244, or BEZ235 for 72 h and cell viability measured as above.
Breast cancer, cell lines, marker status, and IC50 in response to ganetespib at 72 hr (viability by CTG).
Basal breast cancer is a subtype believed to be more stem like and less differentiated than luminal breast cancer, and therefore more aggressive with limited treatment options. […]

[2] = system: BT-474 breast cancer cells grown as mammospheres; assay: Viability of mammospheres in Matrigel, 72 hr, AlamarBlue; type: cell-based; settings: Homo sapiens, BT-474 mammospheres in Matrigel
Method: The cells were treated for 72 hr and analyzed by microscopy. IC50 was determined by AlamarBlue®.
BT-474 HER2+ luminal cells were cultured as mammospheres in Matrigel® and exposed to ganetespib for 72 hr.

[3] = system: AGS (wt-p53 and mut-KRAS); assay: 72 hr viability by CTG, gastric cancer cells; type: cell-based; settings: viability by CTG (upper)
Method: (§2) Many of the oncoproteins associated with gastric cancer and Hsp90 client proteins including HER2, MET, RAS and the FGFR family. Ganetespib was evaluated for its effect on the growth of AGS (wt-p53 and mut-KRAS) and MKN45 (wt-p53, wt-KRAS, MET amplified) gastric cancer cells.

[4] = system: MKN45 (wt-p53, wt-KRAS, MET amplified); assay: 72 hr viability by CTG, gastric cancer cells; type: cell-based; settings: Homo sapiens, MKN-45, viability by CTG (upper)
Method: as §2

SNU-1 = assay: 72 hr viability by Syto60, gastric cell line; type: cell-based; settings: Homo sapiens, SNU1, Syto60 (lower), read-out: ganetespib IC50
GT3TKB = assay: 72 hr viability by Syto60, gastric cell line; type: cell-based; settings: Syto60 (lower), read-out: ganetespib IC50
AGS = assay: 72 hr viability by Syto60, gastric cell line; type: cell-based; settings: Homo sapiens, Syto60 (lower), read-out: ganetespib IC50
Method: (§3) Many of the oncoproteins associated with gastric cancer and Hsp90 client proteins including HER2, MET, RAS and the FGFR family. Ganetespib was evaluated for its effect on the growth of AGS (wt-p53 and mut-KRAS) and MKN45 (wt-p53, wt-KRAS, MET amplified) gastric cancer cells. Cells were treated for 72 hr and viability determined by CTG (upper) or Syto60 (lower).

MKN-45 = assay: 72 hr viability by Syto60, gastric cell line; type: cell-based; settings: Homo sapiens, Syto60 (lower), read-out: ganetespib IC50
Method: as §3

[5] = system: EGFR and other client proteins; assay: Western blot of Hsp90 client proteins in Detroit 562 cells, 24 hr; type: cell-based; settings: Detroit 562, 24 hr
Excerpt: Head and neck (H/N) cancer refers to a group of biologically similar cancers originating from the upper autodigestive tract. First line therapies include EGFR inhibitors and platins. Modulation of EGFR and other client proteins by ganetespib was investigated in Detroit 562 H/N cancer cells.

[6] = system: KRAS mutant NSCLC cell lines; assay: Combinatorial viability analysis in KRAS mutant NSCLC cell lines; type: cell-based
Method: For combinatorial analysis, cells were seeded in 96-well plates at a predetermined, optimum growth density for 24 h prior to the addition of drug or vehicle to the culture medium. Drug combinations were applied at a non-constant ratio over a range of concentrations for 72 or 96 hours. […] Cell viability was assessed by either AlamarBlue® (Invitrogen, Carlsbad, Calif.) or CellTiter-Glo® assays and normalized to vehicle controls. For each combination study, the level of growth inhibition (fraction affected) is plotted relative to vehicle control. Data are presented as one relevant combination point and the corresponding single agent data for each cell line tested.

SMILES: CC(C)c1cc(-c2nnc(O)n2-c2ccc3c(ccn3C)c2)c(O)cc1O [ganetespib]
- Adverse events reported in >20% of patients (advanced GIST; 200 mg/m^2 once per week for 3 weeks of a 28 day cycle, generally NCI CTC grade 1-2): diarrhea, fatigue, nausea, vomiting, increased alkaline phosphatase, headache, insomnia, and abdominal pain
- Evaluable patients with SD (advanced GIST; 4 SD 16 weeks, 8 SD≧8 weeks): 12/23
- Client proteins in paired tumor biopsies (advanced GIST; biopsies from 4 patients, pre-therapy and 24-48 h post-treatment): did not show prolonged inhibition of activated KIT or its downstream pathways
- Tolerability (advanced GIST; once-weekly dosing, no evidence of severe liver, ocular, cardiac or renal toxicity): well-tolerated
- half-life [1]: 10 to 14 h
- NSCLC patients with durable SD, with tumor shrinkage (solid tumors; 6 months of treatment): 2 patients
- DLTs (elevated transaminases) (solid tumors; in the 10 and 144 mg/m^2 cohorts): Two
- Volume of distribution (solid tumors; patients): greater than total body water
- PK linearity (solid tumors; patients, doses from 2-144 mg/m^2): linear PK
- Accumulation in plasma (solid tumors; patients, twice-weekly dosing): no accumulation in plasma
- Tolerability (solid tumors; twice-weekly administration): absence of severe liver, ocular, cardiac and renal toxicity; also recorded: well-tolerated
- Response by RECIST in a patient with metastatic melanoma (solid tumors; twice-weekly dosing): confirmed durable PR
- AEs reported in ≧20% of patients (solid tumors; twice-weekly, majority mild to moderate): fatigue, diarrhea, nausea, anemia, abdominal pain, constipation, anorexia, vomiting, and headache
- Anticancer activity in the basal line MDA-MB-231 (MDA-MB-231; 72 hr viability assay, FIG. 1): highly potent, killing all the cells
- IC50 (MDA-MB-231; Homo sapiens, MDA-MB-231, Basal B, 72 hr, viability by CTG): 24 nM
- IC50 [2]: 20 nM
- IC50 [3]: 1.5 nM
- IC50 [4]: 0.5 nM
- IC50 (SNU-1): 6 nM
- IC50 (GT3TKB): 6 nM
- IC50 (AGS): 5 nM
- IC50 (MKN-45): 8 nM
- Modulation of EGFR and other client proteins [5]: depletion of EGFR and JAK2
- Increase in cell death versus monotherapy ([6]; ganetespib combined with alkylating agents): ≤ 61%
- Increase in cell death versus monotherapy ([6]; ganetespib combined with anti-mitotics): up to 44%
- Increase in cell death versus monotherapy ([6]; ganetespib combined with topoisomerase inhibitors): ≤ 26%
- Greater activity than monotherapy ([6]; low dose of ganetespib combined with MEK inhibitors): up to 77%
- Greater activity than monotherapy ([6]; low dose of ganetespib combined with PI3K/mTOR inhibitors): ≤ 42%
